In one test the test system is NOTCH1. Put plainly: Endogenous NOTCH1 cleavage inhibition in MDA-MB-231 cells (NICD Western blot after EDTA activation). The format is cell-based. Conditions: for NICD levels at 100 nM: MDA-MB-231, 100 nM. On the procedure: To extend the study to a more physiological system, we assessed endogenous NOTCH1 cleavage inhibition using the triple‐negative breast cancer line MDA‐MB‐231 (Fig 6A). Full‐length blots are shown in source data for Fig 6. NOTCH1 cleavage was detected by Western blotting using the Cell Signaling neo‐epitope NICD antibody. […] The inhibition of endogenous APP in MDA‐MB‐231 cells was also tested by detecting accumulation of APP COOH‐terminal fragments (APP‐CTFs). […] Figure 6D summarized the APP‐CTF band intensities normalized for DMSO group. The original blots are available in source data for Fig 6.
Short‐term endogenous NOTCH1 cleavage inhibition was tested in the triple‐negative breast cancer cell lines MDA‐MB‐231 (ATCC, Manassas, VA). Cells were plated in 60 mm dishes and maintained as monolayer cultures in DMEM medium supplemented with 10% FBS, 1% penicillin/streptomycin, 1% L‐glutamine (Life Technologies), and incubated at 37°C in a humidified 5% CO2 incubator. After the cells reached ~75% confluency, cultures were pretreated with GSIs for 1 h in DMEM at 37°C in a 5% CO2 incubator. GSIs were tested at concentrations of 0, 0.1, 0.5, 2.5, and 12.5 μM. Then, EDTA (5 mM, Life Technologies) was added to the cell cultures to induce Notch activation for 5 min. Following incubation, cell extracts were prepared by lysing cells in RIPA buffer (Santa Cruz Biotechnology) containing protease and phosphatase inhibitors. Western blotting was performed using Cleaved NOTCH1 (Val1744) antibody (Cell Signaling) with β‐actin (Santa Cruz Biotechnology) as loading control. Band intensities were normalized for actin using ImageJ Software (NIH, USA).
(§1) Sandwich ELISAs used for Aβ detection were performed as previously described (Murphy et al, 1999; Ran et al, 2014). Briefly, Aβ and Aβ‐like peptides in conditioned media were captured with Ab5 antibody and detected with horseradish peroxidase labeled mAb 4G8 (Biolegend). Synthetic Aβ1‐40 was used as standard. All ELISAs were developed with TMB substrate (KPL, Gaithersburg, Maryland, USA). Bis‐Tris precast gels (Biorad, Hercules, CA, USA) were used for all SDS–PAGE. Monoclonal anti‐FLAG M2 antibody (Sigma) and Aβ1‐16 antibody 6E10 (Covance) were used for Western blotting at 1:1,000 dilution. Anti‐CD74 In‐1 antibody (BD Bioscience, San Jose, CA, USA) was used for A20 cell lysate Western blotting at dilution of 1:1,000. MDA‐MB‐231 cell extracts were prepared by lysing cells in RIPA buffer containing protease and phosphatase inhibitors. The lysates were kept on ice for 30 min and vortexed every 10 min, and then centrifuged at 4°C for 10 min at 1,000 g. The supernatants were collected, and protein concentrations were determined by Bradford Assay. Pan‐NOTCH1 antibody (C‐20) (Santa Cruz Biotechnology) and cleaved NOTCH1 (Val1744) antibody ([…]) were used at 1:500 and 1:100 dilution in the test of endogenous NOTCH1 inhibition with β‐actin expression used as loading control. β‐actin antibody was used at 1:1,000 dilution (Sigma). Band intensities normalized for actin using densitometry analysis with ImageJ Software (NIH, USA).

A further test concerns cNOTCH1sub. Nature of the test: Cell-based γ-secretase cleavage assay, cNOTCH1sub in H4 cells (Aβ-like peptide ELISA). Details: species or system human. The note with it: Aβ-like peptide in media, GSI overnight. On the procedure:
Using these cell‐based γ‐secretase cleavage assays, we systematically investigated the substrate inhibition profile of BMS‐906024, MK‐0752, PF‐308414, RO4929097, Semagacestat, and DAPT. We treated H4 cells stably expressing cNOTCH1‐4sub with 4 pM to 10 μM of GSIs (Fig 5A and Table 2) and measured the Aβ‐like peptide secreted into the media.
For the cell‐based assay, all substrates contain a human NOTCH4 signal peptide sequence ([…]), amyloid β peptide (Aβ1–25/K16A) epitope tag followed by the juxtamembrane region (JMD) of the given substrate and a FLAG tag ([…]) at the COOH‐terminal. K16A mutant was created to decrease potential α‐secretase cleavage. The cDNAs were generated by gene synthesis conducted by Genscript. A schematic representation of the substrates is provided in Fig 4A, and sequences of the cDNAs and the proteins are provided in Appendix Fig S6. For clarity, these substrates are referred to as cell‐based assay substrates (e.g., NOTCH1 is cNOTCH1sub). Substrate cDNAs were cloned into pCDNA3.1 (Invitrogen, Carlsbad, CA, USA) for expression in H4 cells (ATCC, Manassas, VA).
H4 cells were cultured in Opti‐mem media (Thermo‐Fisher) supplemented with Hyclone 6% fetal bovine serum (GE, Logan, Utah, USA) and 1% penicillin/streptomycin (Life Technologies, Grand Island, NY, USA). pCDNA3.1 plasmids containing the substrate cDNAs were transfected into H4 cells using FuGENE HD reagent (Madison, WI, USA). Stable cell lines were established using G418 selection. […] Cells and conditioned media were used for WB, IP, and ELISA.
as §1
(An ELISA detects its analyte on a solid surface through an enzyme-linked reagent.)

Another test relates to Aβ40. Set-up: method as in ref Appendix Table S1 (Gavai et al, 2015; Dovey et al, 2001; Cook et al, 2010; Krop et al, 2012; Wei et al, 2010; Luistro et al, 2009; Mitani et al, 2012). The note with it: ref Appendix Table S1 (Gavai et al, 2015; Dovey et al, 2001; Cook et al, 2010; Krop et al, 2012; Wei et al, 2010; Luistro et al, 2009; Mitani et al, 2012); read-out: Reported IC50s Aβ40; cited from earlier work.

Turning to `CN1C(=O)[C@@H](NC(=O)[C@H](CCC(F)(F)F)[C@H](CCC(F)(F)F)C(N)=O)N=C(c2ccccc2)c2ccccc21` [BMS‐906024], the “NICD levels at 100 nM” value with NOTCH1 was “reduced NICD to levels equal or lower than baseline”. In addition, the values for the IC50 in the test with cNOTCH1sub and with Aβ40 were 0.29 nM and 1.6 nM, respectively.
Take `O=C(O)CC[C@H]1CC[C@@](c2cc(F)ccc2F)(S(=O)(=O)c2ccc(Cl)cc2)CC1` [MK‐0752]: the “concentration reducing NICD to background levels or below” value with NOTCH1 (MDA-MB-231) was not below 0.5 µM. Besides, the IC50 was 87.4 nM in the test with cNOTCH1sub and 5 nM in the test with Aβ40.
On to `CCC[C@H](N[C@H]1CCc2cc(F)cc(F)c2C1)C(=O)Nc1cn(C(C)(C)CNCC(C)(C)C)cn1` [PF‐3084014], for which, in the test on NOTCH1, the “NICD levels at 100 nM” value is reported as “reduced NICD to levels equal or lower than baseline”. Moreover, the IC50 with cNOTCH1sub is 0.6 nM; in the test with Aβ40, 6.2 nM.
Consider `CC(C)(C(=O)NCC(F)(F)C(F)(F)F)C(=O)N[C@@H]1C(=O)Nc2ccccc2-c2ccccc21` [RO4929097], for which the “NICD levels at 100 nM” value with NOTCH1 is listed as “reduced NICD to levels equal or lower than baseline”. Also, the IC50 was 0.46 nM in the test on cNOTCH1sub and 14 nM in the test on Aβ40.
For `CC(C)[C@H](O)C(=O)N[C@@H](C)C(=O)N[C@@H]1C(=O)N(C)CCc2ccccc21` [Semagacestat], the NICD levels entry in the test on NOTCH1 (MDA-MB-231, 100 nM to 12.5 μM, 1 h pretreatment then 5 mM EDTA 5 min) is on record as “reduced NICD concentrations to near‐baseline levels at all concentrations tested”. For the same molecule, the IC50 is 7.02 nM in the test on cNOTCH1sub and 12.1 nM with Aβ40.

These data come from publication PMC5494507, “γ‐Secretase inhibitors in cancer clinical trials are pharmacologically and functionally distinct” (EMBO Molecular Medicine, 2017).
